Values quoted from earlier work in patent publication US20080103154A1, “3, 4-dihydro-2(IH)-quinolinone and 2(1H)-quinolinone derivatives” (Concert Pharmaceuticals Inc., priority 2006, published 2008).

Assays:
5-HT2C = target: T1, 5-HT2C (Homo sapiens, UniProt P28335); conditions: transfected cell lines expressing rat and human receptors
T1 sequence (P28335 33-458): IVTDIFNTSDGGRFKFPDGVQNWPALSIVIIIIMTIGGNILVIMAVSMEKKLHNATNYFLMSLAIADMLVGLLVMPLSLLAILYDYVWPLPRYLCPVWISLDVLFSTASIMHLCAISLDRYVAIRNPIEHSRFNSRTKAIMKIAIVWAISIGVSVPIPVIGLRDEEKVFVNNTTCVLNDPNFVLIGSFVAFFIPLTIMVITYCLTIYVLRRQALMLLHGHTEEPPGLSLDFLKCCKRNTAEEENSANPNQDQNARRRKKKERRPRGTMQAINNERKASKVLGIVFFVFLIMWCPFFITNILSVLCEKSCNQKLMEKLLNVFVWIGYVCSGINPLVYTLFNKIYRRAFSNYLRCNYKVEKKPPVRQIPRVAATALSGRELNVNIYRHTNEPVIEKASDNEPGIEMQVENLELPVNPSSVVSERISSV

H1 receptors = H1 receptors (Homo sapiens, UniProt P35367); conditions: transfected cell lines expressing rat and human receptors
Chain of H1 receptors (P35367 whole entry): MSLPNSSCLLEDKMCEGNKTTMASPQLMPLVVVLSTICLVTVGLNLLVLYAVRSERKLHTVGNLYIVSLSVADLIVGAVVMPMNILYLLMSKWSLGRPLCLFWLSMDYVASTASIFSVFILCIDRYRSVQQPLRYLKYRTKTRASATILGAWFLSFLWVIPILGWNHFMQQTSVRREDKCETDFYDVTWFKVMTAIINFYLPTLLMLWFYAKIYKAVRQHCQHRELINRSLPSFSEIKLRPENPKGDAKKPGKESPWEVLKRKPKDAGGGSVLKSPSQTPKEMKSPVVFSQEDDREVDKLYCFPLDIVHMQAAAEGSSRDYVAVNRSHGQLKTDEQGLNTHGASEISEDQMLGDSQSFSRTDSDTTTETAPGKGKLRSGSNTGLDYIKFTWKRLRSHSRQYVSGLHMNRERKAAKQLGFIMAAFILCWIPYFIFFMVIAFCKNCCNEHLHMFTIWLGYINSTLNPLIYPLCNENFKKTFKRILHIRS

5-HT2A = 5-HT2A (Homo sapiens, UniProt P28223); conditions: transfected cell lines expressing rat and human receptors
Chain of 5-HT2A (P28223 whole entry): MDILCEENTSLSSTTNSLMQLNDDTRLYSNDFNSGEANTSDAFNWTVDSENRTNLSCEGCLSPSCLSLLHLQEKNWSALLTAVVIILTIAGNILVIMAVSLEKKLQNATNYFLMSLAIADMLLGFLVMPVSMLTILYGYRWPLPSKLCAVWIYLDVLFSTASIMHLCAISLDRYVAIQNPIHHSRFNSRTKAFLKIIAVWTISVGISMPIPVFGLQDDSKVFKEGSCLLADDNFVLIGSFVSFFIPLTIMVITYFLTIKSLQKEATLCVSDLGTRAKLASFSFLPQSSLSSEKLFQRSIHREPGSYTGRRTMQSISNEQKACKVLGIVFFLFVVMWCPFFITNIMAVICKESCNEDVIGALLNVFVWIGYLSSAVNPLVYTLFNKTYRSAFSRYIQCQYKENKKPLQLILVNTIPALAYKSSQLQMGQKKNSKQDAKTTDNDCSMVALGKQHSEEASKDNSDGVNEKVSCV

[1] = not given; remark: listed apart in the source
5-HT1A = target: T2, 5-HT1A (Homo sapiens, UniProt P08908); conditions: transfected cell lines expressing rat and human receptors
T2 sequence (P08908 1-422): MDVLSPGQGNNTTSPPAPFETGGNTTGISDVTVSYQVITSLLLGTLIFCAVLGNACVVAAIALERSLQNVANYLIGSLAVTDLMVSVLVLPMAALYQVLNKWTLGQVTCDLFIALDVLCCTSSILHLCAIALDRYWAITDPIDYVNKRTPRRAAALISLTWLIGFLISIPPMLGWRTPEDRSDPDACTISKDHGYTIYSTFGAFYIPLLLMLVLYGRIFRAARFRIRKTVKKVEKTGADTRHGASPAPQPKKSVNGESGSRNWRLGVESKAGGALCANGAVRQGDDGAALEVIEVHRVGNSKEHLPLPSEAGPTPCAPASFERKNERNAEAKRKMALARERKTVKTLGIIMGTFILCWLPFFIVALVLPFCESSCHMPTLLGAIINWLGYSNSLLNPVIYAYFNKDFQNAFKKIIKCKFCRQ

α1 = conditions: transfected cell lines expressing rat and human receptors

Q: For `O=c1ccc2ccc(OCCCCN3CCN(c4cccc(Cl)c4Cl)CC3)cc2[nH]1` [dehydroaripiprazole], which “share of activity accounted for by metabolite” value (humans) is on record?
A: The value was 20%.

Q: And the “potency relative to aripiprazole” value (metabolite of aripiprazole)?
A: Its value is “equipotent with aripiprazole”.

Q: Which “affinity to 5-HT2C” value (5-HT2C) does the source give for `O=C1CCc2ccc(OCCCCN3CCN(c4cccc(Cl)c4Cl)CC3)cc2N1` [Aripiprazole] here?
A: The value was “moderate affinity”.

Q: What about the “affinity to H1 receptors” value (H1 receptors) of the same compound?
A: The value was “moderate affinity”.

Q: And the “affinity binding to 5-HT2A” value (5-HT2A)?
A: The value was “high affinity”.

Q: What about the metabolism ([1]; humans) of the same compound?
A: The metabolism was “extensively metabolized”.

Q: And the absorption ([1]; oral administration in humans)?
A: The absorption was “well absorbed”.

Q: What about the absolute oral bioavailability ([1]; oral formulation, humans) of the same compound?
A: The absolute oral bioavailability was 87%.

Q: And the “affinity binding to 5-HT1A” value (5-HT1A)?
A: The value was “high affinity”.

Q: What about the “affinity to α1” value (α1) of the same compound?
A: Its value is “moderate affinity”.
